What was measured:
[1] = system: A. tuberculatus F1(S) hybrid (maternal parent S); experiment: Herbicide dose-response on whole plants, F1(S) line; assay type: in vivo, Amaranthus tuberculatus (waterhemp)
[2] = system: A. tuberculatus F1(R) hybrid (maternal parent R); experiment: Herbicide dose-response on whole plants, F1(R) line; assay type: in vivo, Amaranthus tuberculatus (waterhemp); details: for GR50 (growth reduction by 50%) F1(R): F1(R) line
[3] = system: A. tuberculatus PPO2L with glycine at position 210 expressed in E. coli SASX38; assay type: cell-based; details: LB with lactofen (100 nM, FIG. 6), 37° C., 14 hrs

| Compound | GR50 (growth reduction by 50%) F1(S) ([1]; 10 DAT) [g ai ha^−1] | GR50 (growth reduction by 50%) F1(R) ([2]; 10 DAT) [g ai ha^−1] | GR50 (growth reduction by 50%) F1(S) ([1]; 15 DAT) [g ai ha^−1] | GR50 (growth reduction by 50%) F1(R) ([2]; 15 DAT) [g ai ha^−1] | fold higher doses survived compared with S plants ([2]; lines heterozygous for resistance vs S plants (FIG. 2; Table 2)) [fold] | growth of E. coli on lactofen-supplemented medium [3] |
| --- | --- | --- | --- | --- | --- | --- |
| O=C(O)c1cc(Oc2ccc(C(F)(F)F)cc2Cl)ccc1[N+](=O)[O-] [Acifluorfen, 5-{2-chloro-4-(trifluoromethyl)phenoxy}-2-nitrobezoic acid] | 4.1 | 3.8 | – | – | – | – |
| CCOC(=O)C(C)OC(=O)c1cc(Oc2ccc(C(F)(F)F)cc2Cl)ccc1[N+](=O)[O-] (racemic) [Lactofen, (±)-2-ethoxy-1-methyl-2-oxoethyl 5-{2-chloro-4-(trifluoromethyl)phenoxy}-2-nitrobenzoate] | 1.6 | 0.7 | 13 | 12 | 31 | dramatically inhibited growth |

Source: patent US7842856B2, “Herbicide resistance gene, compositions and methods” (The Board of Trustees of the University of Illinois, priority 2005, dated 2010)
